According to US6033823A, “Mutated penicillin G acylase genes” (priority 1994, dated 2000):
Changes are numbered by the printed parent chain.

Key:
[1] = biological target: T1, Alcaligenes faecalis Penicillin G acylase mutant B:L56G (Alcaligenes faecalis, UniProt O34142, L321G); assay: NIPAB kinetics and phenylacetic acid product inhibition, mutant B:L56G; assay type: biochemical; conditions: from progress curves of NIPAB deacylation, 25° C., 0.1 M NaH2PO4.H2O buffer pH 7.5, read-out: Ki Phenylacetic acid (inhibition constant, dissociation constant)
T1 construct: alpha 202 aa, beta 551 aa; recombinant, E. coli host
T1 sequence (O34142 27-228): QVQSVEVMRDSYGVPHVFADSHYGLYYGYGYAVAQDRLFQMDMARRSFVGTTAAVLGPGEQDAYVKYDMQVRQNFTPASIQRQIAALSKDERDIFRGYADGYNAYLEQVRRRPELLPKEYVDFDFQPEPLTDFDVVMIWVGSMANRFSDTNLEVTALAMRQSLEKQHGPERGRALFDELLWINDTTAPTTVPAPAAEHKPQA
T1 sequence (O34142 266-816 L321G): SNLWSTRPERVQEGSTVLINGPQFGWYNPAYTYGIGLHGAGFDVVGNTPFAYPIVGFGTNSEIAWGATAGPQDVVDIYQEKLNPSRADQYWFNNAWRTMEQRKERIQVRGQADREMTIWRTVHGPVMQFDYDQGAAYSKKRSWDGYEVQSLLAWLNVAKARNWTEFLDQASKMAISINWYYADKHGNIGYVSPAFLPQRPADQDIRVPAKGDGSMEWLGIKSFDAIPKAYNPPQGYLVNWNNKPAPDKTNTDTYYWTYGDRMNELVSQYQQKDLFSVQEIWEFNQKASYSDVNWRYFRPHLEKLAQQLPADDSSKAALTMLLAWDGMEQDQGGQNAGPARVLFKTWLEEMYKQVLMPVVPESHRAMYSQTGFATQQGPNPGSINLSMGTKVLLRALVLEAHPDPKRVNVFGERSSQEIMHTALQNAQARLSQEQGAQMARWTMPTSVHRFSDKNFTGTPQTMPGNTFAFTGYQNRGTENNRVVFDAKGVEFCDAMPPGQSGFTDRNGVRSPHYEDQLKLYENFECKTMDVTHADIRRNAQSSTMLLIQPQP
Description: In a continuous assay Penicillin G acylase was assayed spectro-fotometrically with the chromogenic substrate NIPAB [6-nitro-3-phenylacetamido-benzoic acid]. The liberation of 3-amino-6-nitrobenzoic acid was monitored by measuring the extinction at 405 nm in a Kontron 610 kinetic spectrofotometer. Measuring maximal rate, the assays were performed at 25° C. using 20 mM NaH2 PO4.H2 O at pH 7.5 with 20 mM NIPAB and 100 μl enzym solution (at a proper dilution). Initial rate measurements were performed with varying concentration of NIPAB.
Initial rate measurements were performed with excess substrate over the enzyme. Catalytic parameters were derived from least-squares fitting of the measured initial rates plotted for various substrate concentrations according to the Michaelis-Menten equation.
The complete conversion of NIPAB was followed as a funtion of time at 20, 50 and 100 μM NIPAB by following the increase in absorbtion at 405 nm. Products of this conversion are phenylacetic acid and 3-amino-6-nitrobenzoic acid. The conversion was performed at 25° C. in 0.1 M NaH2 PO4.H2 O buffer pH 7.5. The progress curves of the deacylation of NIPAB could be fitted very well when product inhibition by phenylacetic acid was taken into account. […]

[2] = biological target: T2, Alcaligenes faecalis Penicillin G acylase mutant A:M143V (Alcaligenes faecalis, UniProt O34142, M169V); assay: Deacylation kinetics and phenylacetic acid product inhibition, mutant A:M143V; assay type: biochemical; conditions: from progress curves of NIPAB deacylation, 25° C., 0.1 M NaH2PO4.H2O buffer pH 7.5, read-out: Ki Phenylacetic acid (inhibition constant, dissociation constant)
T2 construct: alpha 202 aa, beta 551 aa; recombinant, E. coli host
T2 sequence (O34142 27-228 M169V): T1 sequence (O34142 27-228) with M143V
T2 sequence (O34142 266-816): T1 sequence (O34142 266-816 L321G) with G56L
Description: In order to determine enzymatic activity the acylases were incubated with substrate at room temperature in buffered solution. In case β-lactamase impurity was expected to be present in the enzyme preparations, 1.0 mM -lactamase inhibitor 6-bromo-penicillanic acid was added to the assay. The reactions were stopped by adding an excess PMSF. For some mutants which were less sensitive to PMSF inhibition, the reactions were stopped by adding 0.5 M HCl or 0.5 M acetic acid until the pH was between 3 and 4. When reactions were subsequently analysed by HPLC, the reactions were stopped by dilution with the correponding elution solvent (see table 1). […]
The composition of the reaction mixtures was determined by high-performanceliquid chromatography (HPLC)(table 1). Concentrations were determined by using standards of known concentration.
In a continuous assay Penicillin G acylase was assayed spectro-fotometrically with the chromogenic substrate NIPAB [6-nitro-3-phenylacetamido-benzoic acid]. The liberation of 3-amino-6-nitrobenzoic acid was monitored by measuring the extinction at 405 nm in a Kontron 610 kinetic spectrofotometer. […]
Initial rate measurements were performed with excess substrate over the enzyme. Catalytic parameters were derived from least-squares fitting of the measured initial rates plotted for various substrate concentrations according to the Michaelis-Menten equation. […]

With `O=C(O)Cc1ccccc1` [phenylacetic acid] as the compound, how does the Ki [1] read?
The Ki was 55 µM.

What about the Ki [2] of the same compound?
Its Ki is 74 µM.
